Consider 13 molecules from patent US6410558B1, “Fungicides for the control of take-all disease of plants” (Monsanto Technology LLC, priority 1991, dated 2002).

What is called inhibition is the drop in the measured response relative to a control, in per cent.

Bounds are passed on as bounds.

One assay relates to Gaeumannomyces graminis var. tritici (Ggt). As to the kind of experiment: In vitro Assay: mycelial growth of Ggt on minimal media agar plates containing test compound. It counts as cell-based. Particulars: Gaeumannomyces graminis; 0.1 ppm in minimal media agar; dark, 19-20° C., 4 to 5 days; diameter of mycelial growth; read-out: In vitro (ppm) 0.1, Percent Inhibition. A digest of the protocol: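 Compounds added from acetone stock into minimal (Czapek Dox) agar; plates inoculated with three 4-mm Ggt plugs, incubated in dark at 19-20° C for 4 to 5 days. Colony diameter measured; Percent Inhibition = [1-((treated mm −4)/(control mm −4))]×100.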
`C[Si](C)(C)c1cccc(Cl)c1C(=O)Nc1ccccc1[N+](=O)[O-]` [Example 160, 2-Chloro-N-(2-nitrophenyl)-6-(trimethylsilyl)benzamide]: the inhibition at 0.1 ppm is 17%.
Regarding `C=CCNC(=O)NC(=O)c1c(Cl)cccc1[Si](C)(C)C` [Example 165, 2-Chloro-N-[(2-propenylamino)carbonyl]-6-(trimethylsilyl)benzamide], the inhibition at 0.1 ppm is < 0%.
Same read-out and setting: the value for `CCN(CC)C(=O)c1c(Cl)cccc1C[Si](C)(C)C` [Example 166, 2-Chloro-N,N-diethyl-6-[(trimethylsilyl)methyl]benzamide] was 4%; that for `CC(C)N(O)C(=O)c1c(Cl)cccc1[Si](C)(C)C` [Example 167, 2-Chloro-N-hydroxy-N-(1-methylethyl)-6-(trimethylsilyl)benzamide] was 46%; that for `CCN(SC)C(=O)c1c(Cl)cccc1[Si](C)(C)C` [Example 172, 2-Chloro-N-ethyl-N-(methylthio)-6-(trimethylsilyl)benzamide] was 94%.
For the molecule `CSNC(=O)c1c(Cl)cccc1[Si](C)(C)C` [Example 174, 2-Chloro-N-(methylthio)-6-(trimethylsilyl)benzamide], the inhibition at 0.1 ppm is 12%.
On the same count and under the same terms, for `C=CC[Si](C)(C)c1cccc(Cl)c1C(=O)NCC` [Example 179, 2-Chloro-6-(dimethyl-2-propenylsilyl)-N-ethylbenzamide] the value was 85%; for `CCNC(=O)c1c(Cl)cccc1[Si](C)(C)C(C)C` [Example 180, 2-Chloro-6-[dimethyl(1-methylethyl)silyl]-N-ethylbenzamide], 85%; for `CCN(C(=O)c1ccccc1[Si](C)(C)C)C(OC)C(C)(C)C` (stereo not drawn) [Example 187, N-Ethyl-N-(1-methoxy-2,2-dimethylpropyl)-2-(trimethylsilyl)benzamide], 13%.
Same read-out and setting: for `CCNC(=O)c1ccccc1N(C)C(C)(C)C` [Example 188, 2-[(1,1-Dimethylethyl)methylamino]-N-ethylbenzamide] the value was 29%; for `CCNC(=O)c1c(C)cccc1N(C)C(C)(C)C` [Example 191, N-Ethyl-2-[(1,1-dimethylethyl)methylamino]-6-methylbenzamide], 60%; for `CCNC(=O)c1c(Cl)cccc1NC(C)(C)C` [Example 192, 2-Chloro-6-[(1,1-dimethylethyl)amino]-N-ethylbenzamide], 86%.
On to `CCNC(=O)c1c(Cl)ccc(Cl)c1[Si](C)(C)C` [Example 200, 3,6-Dichloro-N-ethyl-2-(trimethylsilyl)benzamide], for which the inhibition at 0.1 ppm was 92%.

The assay is the same for the next values; noted with them: Gaeumannomyces graminis; 1 ppm in minimal media agar; dark, 19-20° C., 4 to 5 days; diameter of mycelial growth; read-out: In vitro (ppm) 1, Percent Inhibition.
As for `C[Si](C)(C)c1cccc(Cl)c1C(=O)Nc1ccccc1[N+](=O)[O-]` [Example 160, 2-Chloro-N-(2-nitrophenyl)-6-(trimethylsilyl)benzamide], the inhibition at 1 ppm worked out at 63%.
On to `C=CCNC(=O)NC(=O)c1c(Cl)cccc1[Si](C)(C)C` [Example 165, 2-Chloro-N-[(2-propenylamino)carbonyl]-6-(trimethylsilyl)benzamide], for which the inhibition at 1 ppm is 76%.
Take `CCN(CC)C(=O)c1c(Cl)cccc1C[Si](C)(C)C` [Example 166, 2-Chloro-N,N-diethyl-6-[(trimethylsilyl)methyl]benzamide]: the inhibition at 1 ppm is < 0%.
Still for that read-out and setting: for `CC(C)N(O)C(=O)c1c(Cl)cccc1[Si](C)(C)C` [Example 167, 2-Chloro-N-hydroxy-N-(1-methylethyl)-6-(trimethylsilyl)benzamide] the value was 86%; for `CCN(SC)C(=O)c1c(Cl)cccc1[Si](C)(C)C` [Example 172, 2-Chloro-N-ethyl-N-(methylthio)-6-(trimethylsilyl)benzamide], 100%.
Same read-out and setting: for `CSNC(=O)c1c(Cl)cccc1[Si](C)(C)C` [Example 174, 2-Chloro-N-(methylthio)-6-(trimethylsilyl)benzamide] the value was 65%; for `C=CC[Si](C)(C)c1cccc(Cl)c1C(=O)NCC` [Example 179, 2-Chloro-6-(dimethyl-2-propenylsilyl)-N-ethylbenzamide], 88%.
With `CCNC(=O)c1c(Cl)cccc1[Si](C)(C)C(C)C` [Example 180, 2-Chloro-6-[dimethyl(1-methylethyl)silyl]-N-ethylbenzamide], the inhibition at 1 ppm was determined as 82%.
Still for that read-out and setting: for `CCN(C(=O)c1ccccc1[Si](C)(C)C)C(OC)C(C)(C)C` (stereo not drawn) [Example 187, N-Ethyl-N-(1-methoxy-2,2-dimethylpropyl)-2-(trimethylsilyl)benzamide] the value was 27%.
On the same count and under the same terms, for `CCNC(=O)c1ccccc1N(C)C(C)(C)C` [Example 188, 2-[(1,1-Dimethylethyl)methylamino]-N-ethylbenzamide] the value was 71%.
Same read-out and setting: the value for `CCNC(=O)c1c(C)cccc1N(C)C(C)(C)C` [Example 191, N-Ethyl-2-[(1,1-dimethylethyl)methylamino]-6-methylbenzamide] was 88%.
`CCNC(=O)c1c(Cl)cccc1NC(C)(C)C` [Example 192, 2-Chloro-6-[(1,1-dimethylethyl)amino]-N-ethylbenzamide]: the inhibition at 1 ppm was 95%.
With `CCNC(=O)c1c(Cl)ccc(Cl)c1[Si](C)(C)C` [Example 200, 3,6-Dichloro-N-ethyl-2-(trimethylsilyl)benzamide], the inhibition at 1 ppm was 100%.

The assay is the same for the next values; noted with them: Gaeumannomyces graminis; 10 ppm in minimal media agar; dark, 19-20° C., 4 to 5 days; diameter of mycelial growth; read-out: In vitro (ppm) 10, Percent Inhibition.
Regarding `C[Si](C)(C)c1cccc(Cl)c1C(=O)Nc1ccccc1[N+](=O)[O-]` [Example 160, 2-Chloro-N-(2-nitrophenyl)-6-(trimethylsilyl)benzamide], the inhibition at 10 ppm was 88%.
Take `C=CCNC(=O)NC(=O)c1c(Cl)cccc1[Si](C)(C)C` [Example 165, 2-Chloro-N-[(2-propenylamino)carbonyl]-6-(trimethylsilyl)benzamide]: the inhibition at 10 ppm amounted to 100%.
For `CCN(CC)C(=O)c1c(Cl)cccc1C[Si](C)(C)C` [Example 166, 2-Chloro-N,N-diethyl-6-[(trimethylsilyl)methyl]benzamide], the inhibition at 10 ppm was found to be 73%.
On the same count and under the same terms, for `CC(C)N(O)C(=O)c1c(Cl)cccc1[Si](C)(C)C` [Example 167, 2-Chloro-N-hydroxy-N-(1-methylethyl)-6-(trimethylsilyl)benzamide] the value was 96%; for `CCN(SC)C(=O)c1c(Cl)cccc1[Si](C)(C)C` [Example 172, 2-Chloro-N-ethyl-N-(methylthio)-6-(trimethylsilyl)benzamide], 100%; for `C=CC[Si](C)(C)c1cccc(Cl)c1C(=O)NCC` [Example 179, 2-Chloro-6-(dimethyl-2-propenylsilyl)-N-ethylbenzamide], 91%.
The same measure, in the same setting: the value for `CCNC(=O)c1c(Cl)cccc1[Si](C)(C)C(C)C` [Example 180, 2-Chloro-6-[dimethyl(1-methylethyl)silyl]-N-ethylbenzamide] was 90%; that for `CCN(C(=O)c1ccccc1[Si](C)(C)C)C(OC)C(C)(C)C` (stereo not drawn) [Example 187, N-Ethyl-N-(1-methoxy-2,2-dimethylpropyl)-2-(trimethylsilyl)benzamide] was 97%; that for `CCNC(=O)c1ccccc1N(C)C(C)(C)C` [Example 188, 2-[(1,1-Dimethylethyl)methylamino]-N-ethylbenzamide] was 100%.
Consider `CCNC(=O)c1c(C)cccc1N(C)C(C)(C)C` [Example 191, N-Ethyl-2-[(1,1-dimethylethyl)methylamino]-6-methylbenzamide], for which the inhibition at 10 ppm amounted to 88%.
The same measure, in the same setting: for `CCNC(=O)c1c(Cl)cccc1NC(C)(C)C` [Example 192, 2-Chloro-6-[(1,1-dimethylethyl)amino]-N-ethylbenzamide] the value was 95%.
The same measure, in the same setting: for `CCNC(=O)c1c(Cl)ccc(Cl)c1[Si](C)(C)C` [Example 200, 3,6-Dichloro-N-ethyl-2-(trimethylsilyl)benzamide] the value was 100%.

The next assay concerns Ggt. As to the kind of experiment: In vivo Assay: control of Ggt on wheat grown in pots of Ggt-infested soil, root disease rating. Particulars: Gaeumannomyces graminis, 672 h; 0.5 mg active ingredient per pot; 'Bergen' or 'Anza' wheat in Ggt-infested soil; after four weeks; vs untreated control; read-out: In vivo, percent disease control. Also on record: species or system Gaeumannomyces graminis var. tritici. A digest of the protocol: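 Wheat ('Bergen' or 'Anza') seeds in soil infested with Ggt-colonised oats (4% v/v) treated at 0.5 mg active ingredient per pot in acetone/water with Tween 20; five pots per treatment. After four weeks, seminal roots rated 0–5; trimmed mean of three replicates converted to percent disease control versus untreated.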
With `C[Si](C)(C)c1cccc(Cl)c1C(=O)Nc1ccccc1[N+](=O)[O-]` [Example 160, 2-Chloro-N-(2-nitrophenyl)-6-(trimethylsilyl)benzamide], the pest or weed control at 0.5 mg/pot was 5%.
Still for that read-out and setting: for `C=CCNC(=O)NC(=O)c1c(Cl)cccc1[Si](C)(C)C` [Example 165, 2-Chloro-N-[(2-propenylamino)carbonyl]-6-(trimethylsilyl)benzamide] the value was 63%; for `CCN(CC)C(=O)c1c(Cl)cccc1C[Si](C)(C)C` [Example 166, 2-Chloro-N,N-diethyl-6-[(trimethylsilyl)methyl]benzamide], 15%.
For `CC(C)N(O)C(=O)c1c(Cl)cccc1[Si](C)(C)C` [Example 167, 2-Chloro-N-hydroxy-N-(1-methylethyl)-6-(trimethylsilyl)benzamide], the pest or weed control at 0.5 mg/pot came to 93%.
For the molecule `CCN(SC)C(=O)c1c(Cl)cccc1[Si](C)(C)C` [Example 172, 2-Chloro-N-ethyl-N-(methylthio)-6-(trimethylsilyl)benzamide], the pest or weed control at 0.5 mg/pot is 99%.
Still for that read-out and setting: for `CSNC(=O)c1c(Cl)cccc1[Si](C)(C)C` [Example 174, 2-Chloro-N-(methylthio)-6-(trimethylsilyl)benzamide] the value was 0%; for `C=CC[Si](C)(C)c1cccc(Cl)c1C(=O)NCC` [Example 179, 2-Chloro-6-(dimethyl-2-propenylsilyl)-N-ethylbenzamide], 97%; for `CCNC(=O)c1c(Cl)cccc1[Si](C)(C)C(C)C` [Example 180, 2-Chloro-6-[dimethyl(1-methylethyl)silyl]-N-ethylbenzamide], 96%.
With `CCN(C(=O)c1ccccc1[Si](C)(C)C)C(OC)C(C)(C)C` (stereo not drawn) [Example 187, N-Ethyl-N-(1-methoxy-2,2-dimethylpropyl)-2-(trimethylsilyl)benzamide], the pest or weed control at 0.5 mg/pot came out at 24%.
For `CCNC(=O)c1ccccc1N(C)C(C)(C)C` [Example 188, 2-[(1,1-Dimethylethyl)methylamino]-N-ethylbenzamide], the pest or weed control at 0.5 mg/pot was 15%.
Turning to `CCNC(=O)c1c(C)cccc1N(C)C(C)(C)C` [Example 191, N-Ethyl-2-[(1,1-dimethylethyl)methylamino]-6-methylbenzamide], the pest or weed control at 0.5 mg/pot was determined as 88%.
Same read-out and setting: the value for `CCNC(=O)c1c(Cl)cccc1NC(C)(C)C` [Example 192, 2-Chloro-6-[(1,1-dimethylethyl)amino]-N-ethylbenzamide] was 99%; that for `CCNC(=O)c1c(Cl)ccc(Cl)c1[Si](C)(C)C` [Example 200, 3,6-Dichloro-N-ethyl-2-(trimethylsilyl)benzamide] was 65%.
